In article PMC9760444, “Direct targeting of sEH with alisol B alleviated the apoptosis, inflammation, and oxidative stress in cisplatin-induced acute kidney injury” (International Journal of Biological Sciences, 2023):

Biological target: T1, soluble epoxide hydrolase (sEH) (Homo sapiens, UniProt P34913)
T1 construct: gene EPHX2; Recombinant human sEH
T1 sequence (P34913 1-555): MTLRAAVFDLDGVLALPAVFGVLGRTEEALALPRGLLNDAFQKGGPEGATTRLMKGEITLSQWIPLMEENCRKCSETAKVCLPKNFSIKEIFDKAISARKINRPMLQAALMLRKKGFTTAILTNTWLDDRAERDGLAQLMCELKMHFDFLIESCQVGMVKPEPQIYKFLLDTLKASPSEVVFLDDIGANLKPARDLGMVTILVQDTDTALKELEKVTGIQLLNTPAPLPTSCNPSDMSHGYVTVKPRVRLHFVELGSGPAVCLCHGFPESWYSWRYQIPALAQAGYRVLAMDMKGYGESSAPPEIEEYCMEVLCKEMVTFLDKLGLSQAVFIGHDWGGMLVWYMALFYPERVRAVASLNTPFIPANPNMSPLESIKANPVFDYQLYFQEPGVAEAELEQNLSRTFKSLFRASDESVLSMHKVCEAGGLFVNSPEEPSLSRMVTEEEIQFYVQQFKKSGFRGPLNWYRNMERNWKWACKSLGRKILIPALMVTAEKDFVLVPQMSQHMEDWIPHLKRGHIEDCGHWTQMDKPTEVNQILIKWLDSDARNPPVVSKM
Experiment: SPR (Biacore T200); supported by inhibition kinetics (Ki […]), pull-down, CETSA, SIP, DARTS
Format: binding

- Kd: 1.32 µM
SMILES: C[C@H](C[C@H](O)[C@H]1OC1(C)C)C1=C2C[C@H](O)[C@H]3[C@@]4(C)CCC(=O)C(C)(C)[C@@H]4CC[C@]3(C)[C@@]2(C)CC1 [alisol B]
